Legend:
[1] = test system: weed plants such as Sinapis alba, Chrysanthemum segetum, Avena sativa, Stellaria media, Echinochloa crus-galli, Lolium multiflorum, Setaria viridis, Abutilon …; test: Pre-emergence effect on weeds (greenhouse pot test, visual scoring); assay type: in vivo; conditions: applied pre-emergence at a rate of 0.3 kg or less of active substance per hectare; visual scoring after 3 to 4 weeks vs untreated controls
Source text: Seeds or sections of rhizome from monocot and dicot weed plants were laid out in sandy loam soil in cardboard pots, and covered with soil. The compounds of the invention, formulated as wettable powders or emulsifiable concentrates, were then applied, in the form of aqueous suspensions or emulsions, at various dosages, onto the surface of the covering earth, at an application rate of 600 to 800 l of water per hectare (converted). Following the treatment, the pots were placed in a greenhouse and maintained under good growth conditions for the weeds. Visual scoring of the plant damage or emergence damage was made when the test plants had emerged, after a test time of 3 to 4 weeks, in comparison to untreated controls.

[2] = test system: weed plants such as Sinapis alba, Echinochloa crus-galli, Lolium multiflorum, Chrysanthemum segetum, Setaria viridis, Abutilon theophrasti, Amaranthus …; test: Post-emergence effect on weeds (greenhouse pot test, visual scoring); assay type: in vivo; conditions: applied post-emergence (three-leaf stage) at a rate of 0.3 kg or less of active substance per hectare; visual scoring after about 3 to 4 weeks vs untreated controls
Description: Seeds or sections of rhizome from monocot and dicot broadleaf weeds were laid out in sandy loam soil in plastic pots, covered with earth, and cultivated in a greenhouse under good growth conditions. Three weeks after sowing, the test plants were treated at the three-leaf stage. The compounds of the invention, formulated as wettable powders or as emulsion concentrates, were sprayed in different dosages onto the green parts of the plants, at an application rate of 600 to 800 l of water per hectare (converted). After the test plants had stood in the greenhouse under optimum growth conditions for a period of about 3 to 4 weeks, the effect of the products was scored visually in comparison to untreated controls.

Compound | herbicidal action against weed plants, pre-emergence [1] | herbicidal action against weed plants, post-emergence [2]
COc1nc(C)nc(NC(=O)NS(=O)(=O)c2c(I)cccc2OCC(F)(F)F)n1 [Compound 1.342] | very good herbicidal action | very good herbicidal action
COc1cc(Cl)nc(NC(=O)NS(=O)(=O)c2c(OC)ccc(Cl)c2I)n1 [Compound 1.601] | very good herbicidal action | very good herbicidal action
COc1cc(Cl)nc(NC(=O)NS(=O)(=O)c2c(I)cccc2OS(=O)(=O)N(C)C)n1 [Compound 1.510] | very good herbicidal action | very good herbicidal action
COc1nc(C)nc(NC(=O)NS(=O)(=O)c2c(I)cccc2SC)n1 [Compound 1.390] | very good herbicidal action | very good herbicidal action
COc1cc(OC)nc(NC(=O)NS(=O)(=O)c2c(I)cccc2OC(F)(F)F)n1 [Compound 1.302] | very good herbicidal action | very good herbicidal action
COc1nc(C)nc(NC(=O)NS(=O)(=O)c2c(I)cccc2OC(C)C(F)(F)F)n1 (stereo not shown) [Compound 1.363] | very good herbicidal action | very good herbicidal action
CCC(C)Oc1cccc(I)c1S(=O)(=O)NC(=O)Nc1nc(C)nc(OC)n1 (stereo not shown) [Compound 1.557] | very good herbicidal action | very good herbicidal action
COc1cc(Cl)nc(NC(=O)NS(=O)(=O)c2c(I)cccc2OS(C)(=O)=O)n1 [Compound 1.472] | very good herbicidal action | very good herbicidal action
COc1cc(OC)nc(NC(=O)NS(=O)(=O)c2c(OC)ccc(Cl)c2I)n1 [Compound 1.598] | very good herbicidal action | very good herbicidal action
CCCCOc1cccc(I)c1S(=O)(=O)NC(=O)Nc1nc(C)nc(OC)n1 [Compound 1.553] | very good herbicidal action | very good herbicidal action
COc1nc(C)nc(NC(=O)NS(=O)(=O)c2c(I)cccc2OC(C)C)n1 [Compound 1.182] | very good herbicidal action | very good herbicidal action
COc1nc(NC(=O)NS(=O)(=O)c2c(OC)ccc(Cl)c2I)nc(OC)n1 [Compound 1.602] | very good herbicidal action | very good herbicidal action
COc1nc(NC(=O)NS(=O)(=O)c2c(I)cccc2C(F)(F)F)nc(OC)n1 [Compound 1.104] | very good herbicidal action | very good herbicidal action
CCC(C)Oc1cccc(I)c1S(=O)(=O)NC(=O)Nc1nc(C)cc(C)n1 (stereo not shown) [Compound 1.558] | very good herbicidal action | very good herbicidal action
COc1cc(Cl)nc(NC(=O)NS(=O)(=O)c2c(I)cccc2OC)n1 [Compound 1.155] | very good herbicidal action | very good herbicidal action
CCOc1cccc(I)c1S(=O)(=O)NC(=O)Nc1nc(Cl)cc(OC)n1 [Compound 1.167] | very good herbicidal action | very good herbicidal action
COc1cc(OC)nc(NC(=O)NS(=O)(=O)c2c(I)cccc2SC)n1 [Compound 1.389] | very good herbicidal action | very good herbicidal action
COc1nc(C)nc(NC(=O)NS(=O)(=O)c2c(I)cccc2OCC(F)(F)C(F)(F)F)n1 [Compound 1.370] | very good herbicidal action | very good herbicidal action
Cc1cc(C)nc(NC(=O)NS(=O)(=O)c2c(I)cccc2OCC(F)F)n1 [Compound 1.353] | very good herbicidal action | very good herbicidal action

Compound | herbicidal action against weed plants, pre-emergence [1] | herbicidal action against weed plants, post-emergence [2]
COc1cc(OC)nc(NC(=O)NS(=O)(=O)c2c(I)cccc2OCC(C)C)n1 [Compound 1.197] | very good herbicidal action | very good herbicidal action
COc1cc(Cl)nc(NC(=O)NS(=O)(=O)c2c(I)cccc2OCC2CC2)n1 [Compound 1.238] | very good herbicidal action | very good herbicidal action
CCCOc1cccc(I)c1S(=O)(=O)NC(=O)Nc1nc(Cl)cc(OC)n1 [Compound 1.174] | very good herbicidal action | very good herbicidal action
COc1nc(NC(=O)NS(=O)(=O)c2c(I)cccc2OC(C)C)nc(OC)n1 [Compound 1.191] | very good herbicidal action | very good herbicidal action
Cc1cc(C)nc(NC(=O)NS(=O)(=O)c2c(I)cccc2OCC(F)(F)C(F)(F)F)n1 [Compound 1.371] | very good herbicidal action | very good herbicidal action
COc1nc(NC(=O)NS(=O)(=O)c2c(I)cccc2OS(=O)(=O)N(C)C)nc(OC)n1 [Compound 1.511] | very good herbicidal action | very good herbicidal action
COc1cc(Cl)nc(NC(=O)NS(=O)(=O)c2c(I)cccc2OC(C)C)n1 [Compound 1.187] | very good herbicidal action | very good herbicidal action
Cc1cc(C)nc(NC(=O)NS(=O)(=O)c2c(I)cccc2OCC(F)(F)F)n1 [Compound 1.343] | very good herbicidal action | very good herbicidal action
COc1cc(OC)nc(NC(=O)NS(=O)(=O)c2c(I)cccc2OCC2CC2)n1 [Compound 1.229] | very good herbicidal action | very good herbicidal action
CCOc1cccc(I)c1S(=O)(=O)NC(=O)Nc1nc(OC)nc(OC)n1 [Compound 1.168] | very good herbicidal action | very good herbicidal action
COc1cc(OC)nc(NC(=O)NS(=O)(=O)c2c(C)cccc2I)n1 [Compound 1.012] | very good herbicidal action | very good herbicidal action
COc1nc(C)nc(NC(=O)NS(=O)(=O)c2c(I)cccc2OC(F)(F)F)n1 [Compound 1.306] | very good herbicidal action | very good herbicidal action
COc1cc(OC)nc(NC(=O)NS(=O)(=O)c2c(I)cccc2OS(C)(=O)=O)n1 [Compound 1.463] | very good herbicidal action | very good herbicidal action
CCCCOc1cccc(I)c1S(=O)(=O)NC(=O)Nc1nc(Cl)cc(OC)n1 [Compound 1.555] | very good herbicidal action | very good herbicidal action
COc1nc(C)nc(NC(=O)NS(=O)(=O)c2c(I)cccc2OC)n1 [Compound 1.150] | very good herbicidal action | very good herbicidal action
CCC(C)Oc1cccc(I)c1S(=O)(=O)NC(=O)Nc1nc(OC)nc(OC)n1 (stereo not shown) [Compound 1.560] | very good herbicidal action | very good herbicidal action
CCCCOc1cccc(I)c1S(=O)(=O)NC(=O)Nc1nc(OC)cc(OC)n1 [Compound 1.192] | very good herbicidal action | very good herbicidal action
COc1nc(NC(=O)NS(=O)(=O)c2c(I)cccc2OS(C)(=O)=O)nc(OC)n1 [Compound 1.476] | very good herbicidal action | very good herbicidal action
COc1cc(Cl)nc(NC(=O)NS(=O)(=O)c2c(I)cccc2OCC(F)(F)F)n1 [Compound 1.344] | very good herbicidal action | very good herbicidal action
